Results reported in ChEMBL document CHEMBL1201862, “PubChem BioAssay data set” (2004).
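Tested at 5 concentrations; 48 h exposure; 96-well plates; endpoints linearly interpolated, else capped at highest concentration. Here, GI50 denotes the concentration required for 50% inhibition of growth.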 Active and inactive are the calls of the source. Rule as the data show it: active = GI50 up to about 1.1 µM and inactive = higher.

Tests used:
Assay in all cases: inhibition of tumour cell growth, NCI panel, 48 h
IGROV-1 = tested on: IGROV-1
MCF7 = tested on: MCF7
Hs-578T = tested on: Hs-578T
NCI/ADR-RES = tested on: NCI/ADR-RES
OVCAR-8 = tested on: OVCAR-8
KM12 = tested on: KM12
MOLT-4 = tested on: MOLT-4
ACHN = tested on: ACHN
UO-31 = tested on: UO-31
RXF 393 = tested on: RXF 393
RPMI-8226 = tested on: RPMI-8226
DU-145 = tested on: DU-145
CCRF-CEM = tested on: CCRF-CEM
PC-3 = tested on: PC-3
SF-268 = tested on: SF-268
NCI-H226 = tested on: NCI-H226
HCT-15 = tested on: HCT-15
BT-549 = tested on: BT-549
SK-OV-3 = tested on: SK-OV-3
SN12C = tested on: SN12C
CAKI-1 = tested on: CAKI-1
EKVX = tested on: EKVX
SK-MEL-28 = tested on: SK-MEL-28
A498 = tested on: A498
LOX IMVI = tested on: LOX IMVI
MDA-MB-231 = tested on: MDA-MB-231
HOP-62 = tested on: HOP-62
T47D = tested on: T47D
SK-MEL-2 = tested on: SK-MEL-2
HL-60 = tested on: HL-60
SW-620 = tested on: SW-620
UACC-257 = tested on: UACC-257
U-251 = tested on: U-251
OVCAR-5 = tested on: OVCAR-5
TK-10 = tested on: TK-10
MDA-MB-435 = tested on: MDA-MB-435
SK-MEL-5 = tested on: SK-MEL-5
UACC-62 = tested on: UACC-62
OVCAR-3 = tested on: OVCAR-3
K562 = tested on: K562
Malme-3M = tested on: Malme-3M
SF-295 = tested on: SF-295
HCT-116 = tested on: HCT-116
HT-29 = tested on: HT-29
SNB-19 = tested on: SNB-19
SF-539 = tested on: SF-539
COLO 205 = tested on: COLO 205
786-0 = tested on: 786-0
MDA-N = tested on: MDA-N
SR = tested on: SR
M14 = tested on: M14
NCI-H23 = tested on: NCI-H23

Measured: GI50

O=C(c1ccc(Cl)cc1)N(C(=S)OCc1ccccn1)c1ccccc1
40.4 µM: HCT-15
inactive: IGROV-1 36.1 µM | MCF7 46.3 µM | Hs-578T > 100 µM | NCI/ADR-RES 39 µM | OVCAR-8 > 100 µM | KM12 > 100 µM | MOLT-4 41.6 µM | ACHN 70.6 µM | UO-31 31 µM | RXF 393 23.5 µM | RPMI-8226 40.6 µM | DU-145 58.6 µM | CCRF-CEM 43.6 µM | PC-3 45.1 µM | SF-268 > 100 µM | NCI-H226 33.7 µM | BT-549 60.7 µM | SK-OV-3 > 100 µM | SN12C 51.6 µM | CAKI-1 71.8 µM | EKVX 20.6 µM | SK-MEL-28 > 100 µM | A498 > 100 µM | LOX IMVI 68.2 µM | MDA-MB-231 > 100 µM | HOP-62 16.6 µM | T47D 29.3 µM | SK-MEL-2 > 100 µM | HL-60 28.8 µM | SW-620 66.7 µM | UACC-257 82.6 µM | U-251 53.6 µM | OVCAR-5 73.6 µM | TK-10 88.1 µM | MDA-MB-435 > 100 µM | SK-MEL-5 58.9 µM | UACC-62 > 100 µM | OVCAR-3 52.7 µM | K562 48.1 µM | Malme-3M 61.1 µM | SF-295 76.6 µM | HCT-116 46.6 µM | HT-29 55 µM | SNB-19 > 100 µM | SF-539 33 µM | COLO 205 > 100 µM | 786-0 83.2 µM | MDA-N > 100 µM | SR > 100 µM | M14 65.3 µM | NCI-H23 67.6 µM
